Values after ≈ are worked out from the molar mass of the structure shown. Counter-ions that a name gives are not always drawn. Where only a bound is given, the exact number is not on record here.

System in one series: not listed separately
The series can be described thus: Solubility. Format: physicochemical.
Settings: not given
For `C/C=C\C=C\C(=O)NC(C)C(O)CC(N)CC(=O)NCCC(=N)N` (centres unmarked) [TAN-749B dihydrochloride], the “Solubility (by reference to TAN-749A dihydrochloride)” value was “Same with TAN-749A dihydrochloride”.

Consider `C/C=C/C=C/C(=O)NCC(O)CC(N)CC(=O)NCCC(=N)N` (centres unmarked) [TAN-749C dihydrochloride], for which the “Solubility (by reference to TAN-749A dihydrochloride)” value is “Same with TAN-749A dihydrochloride”.

Regarding `C/C=C/C=C/C(=O)NC(C)C(O)CC(N)CC(=O)NCCC(=N)N` (centres unmarked) [TAN-749D dihydrochloride], the “Solubility (by reference to TAN-749A dihydrochloride)” value is “Same with TAN-749A dihydrochloride”.

Staying with this series, now noted: dihydrochloride.
Take `C/C=C\C=C\C(=O)NCC(O)CC(N)CC(=O)NCCC(=N)N` (centres unmarked) [TAN-749A dihydrochloride]: the “Solubility: Soluble” value is listed as “Water, Dimethyl sulfoxide, Methanol” and the “Solubility: Sparingly soluble” value is “Acetone, Ethyl acetate, Diethyl ether”.

A further series relates to Pseudomonas aeruginosa P9. In words: Antibacterial spectrum, minimal inhibitory concentration, agar dilution (Table E). Format: cell-based. The note with it: dihydrochloride, medium B--TSA (10% horse serum/TSA), inoculum a loopful of 10^8 CFU/ml. From the text: (§1) Tables D and E show the antibacterial spectra of TAN-749A, B, C and D (dihydrochlorides) against various microorganisms.
(§2) (Note 1) Determined by the agar dilution method. Inoculum size was a
(§3) loopful of 10^8 CFU/ml.
(§4) (Note 2) TSA (Tripticase Soy Agar; Baltimore Biological Laboratories,
(§5) USA), B--TSA; 10% horse serum/TSA
On the technique in general: In agar dilution the substance is mixed into plates at graded concentrations.
In general, MIC refers to the lowest concentration that inhibits growth of the organism. `C/C=C/C=C/C(=O)NCC(O)CC(N)CC(=O)NCCC(=N)N` (centres unmarked) [III]: the lowest concentration to inhibit growth (MIC) was 100 µg/mL (≈ 307 µM).

For another series, the system named is Streptococcus pyogenes E-14. Described as above. Format: cell-based. The note with it: E14, dihydrochloride, medium B--TSA (10% horse serum/TSA), inoculum a loopful of 10^8 CFU/ml.
Excerpt: as §1, §2, §3, §4, §5
Compound `C/C=C/C=C/C(=O)NCC(O)CC(N)CC(=O)NCCC(=N)N` (centres unmarked) [III] registered a minimal inhibitory concentration (MIC) of 100 µg/mL (≈ 307 µM).

For a further series, the system named is Escherichia coli T7. The description is as above. Format: cell-based. To be noted: dihydrochloride, medium TSA, inoculum a loopful of 10^8 CFU/ml.
Excerpt: as §1, §2, §3, §4, §5
Consider `C/C=C/C=C/C(=O)NCC(O)CC(N)CC(=O)NCCC(=N)N` (centres unmarked) [III], for which the MIC was greater than 100 µg/mL.

The next series relates to Staphylococcus aureus 308A-1. The description is as above. Format: cell-based. The note with it: 308A1, dihydrochloride, medium TSA, inoculum a loopful of 10^8 CFU/ml.
Excerpt: as §1, §2, §3, §4, §5
In turn, `C/C=C/C=C/C(=O)NCC(O)CC(N)CC(=O)NCCC(=N)N` (centres unmarked) [III] gave a minimal inhibitory concentration (MIC) greater than 100 µg/mL.

The next series has as its system Staphylococcus aureus FDA209P. The series is described as above. Format: cell-based. The note with it: dihydrochloride, medium B--TSA (10% horse serum/TSA), inoculum a loopful of 10^8 CFU/ml.
Excerpt: as §1, §2, §3, §4, §5
Take `C/C=C/C=C/C(=O)NCC(O)CC(N)CC(=O)NCCC(=N)N` (centres unmarked) [III]: the minimum inhibitory concentration (MIC) was greater than 100 µg/mL.

In the next series the test system is Pseudomonas aeruginosa IFO 3080. In words: Antibacterial spectrum, minimal inhibitory concentration (Table D). Format: cell-based. To be noted: IFO3080, dihydrochloride, Bacto-Antibiotic Medium 3 agar, inoculum a loopful of approx. 10^6 CFU/ml. Here is the method:
as §1
(§6) Bacto-Antibiotic Medium 3
(§7) Distilled water 1,000 ml
(§8) Inoculum size a loopful of approx.
With `C/C=C/C=C/C(=O)NCC(O)CC(N)CC(=O)NCCC(=N)N` (centres unmarked) [III], it took 50 µg/mL (≈ 154 µM) to inhibit growth (MIC).

The test system of the next series is Staphylococcus aureus FDA 209P. The series is described as above. Format: cell-based. To be noted: FDA209P, dihydrochloride, Bacto-Antibiotic Medium 3 agar, inoculum a loopful of approx. 10^6 CFU/ml. On the procedure: as §1, §6, §7, §8
Compound `C/C=C/C=C/C(=O)NCC(O)CC(N)CC(=O)NCCC(=N)N` (centres unmarked) [III] registered an MIC greater than 100 µg/mL.

The subject of a further series is Acinetobacter calcoaceticus IFO 13006. The series is described as above. Format: cell-based. The note with it: IFO13006, dihydrochloride, Bacto-Antibiotic Medium 3 agar, inoculum a loopful of approx. 10^6 CFU/ml. On the procedure:
as §1, §6, §7, §8
Consider `C/C=C/C=C/C(=O)NCC(O)CC(N)CC(=O)NCCC(=N)N` (centres unmarked) [III], for which the minimum inhibitory concentration (MIC) is greater than 100 µg/mL.

In the next series the test system is Citrobacter freundii IFO 12681. The description is as above. Format: cell-based. The note with it: IFO12681, dihydrochloride, Bacto-Antibiotic Medium 3 agar, inoculum a loopful of approx. 10^6 CFU/ml. Here is the method:
as §1, §6, §7, §8
`C/C=C/C=C/C(=O)NCC(O)CC(N)CC(=O)NCCC(=N)N` (centres unmarked) [III] returned an MIC greater than 100 µg/mL.

For the next series, the system named is Klebsiella pneumoniae IFO 3317. Described as above. Format: cell-based. To be noted: IFO3317, dihydrochloride, Bacto-Antibiotic Medium 3 agar, inoculum a loopful of approx. 10^6 CFU/ml. Here is the method:
as §1, §6, §7, §8
Turning to `C/C=C/C=C/C(=O)NCC(O)CC(N)CC(=O)NCCC(=N)N` (centres unmarked) [III], the minimum inhibitory concentration (MIC) was greater than 100 µg/mL.

Another series concerns Escherichia coli NIHJ JC2. The description is as above. Format: cell-based. To be noted: NIHJJC2, dihydrochloride, Bacto-Antibiotic Medium 3 agar, inoculum a loopful of approx. 10^6 CFU/ml. Here is the method:
as §1, §6, §7, §8
`C/C=C/C=C/C(=O)NCC(O)CC(N)CC(=O)NCCC(=N)N` (centres unmarked) [III] gave a minimum inhibitory concentration (MIC) greater than 100 µg/mL.

A further series has as its system Alcaligenes faecalis IFO 13111. The series is described as above. Format: cell-based. The note with it: IFO13111, dihydrochloride, Bacto-Antibiotic Medium 3 agar, inoculum a loopful of approx. 10^6 CFU/ml. Here is the method:
as §1, §6, §7, §8
`C/C=C/C=C/C(=O)NCC(O)CC(N)CC(=O)NCCC(=N)N` (centres unmarked) [III]: 12.5 µg/mL (≈ 38.4 µM) was the least that counted as inhibitory (MIC).

Another series has as its system Proteus morganii IFO 3168. The description is as above. Format: cell-based. The note with it: Morganella morganii, IFO3168; dihydrochloride; Bacto-Antibiotic Medium 3 agar; inoculum a loopful of approx. 10^6 CFU/ml. On the procedure:
as §1, §6, §7, §8
In turn, `C/C=C/C=C/C(=O)NCC(O)CC(N)CC(=O)NCCC(=N)N` (centres unmarked) [III] registered a minimal inhibitory concentration (MIC) greater than 100 µg/mL.

A further series concerns Proteus vulgaris IFO 3988. The series is described as above. Format: cell-based. The note with it: IFO3988, dihydrochloride, Bacto-Antibiotic Medium 3 agar, inoculum a loopful of approx. 10^6 CFU/ml. On the procedure:
as §1, §6, §7, §8
The compound `C/C=C/C=C/C(=O)NCC(O)CC(N)CC(=O)NCCC(=N)N` (centres unmarked) [III] returned an MIC of 100 µg/mL (≈ 307 µM).

System in a further series: not listed separately
The series can be described thus: pKa' value. Format: physicochemical. The note with it: dihydrochloride.
The term pKa denotes the pH at which an ionisable group is half protonated. In turn, `C/C=C\C=C\C(=O)NCC(O)CC(N)CC(=O)NCCC(=N)N` (centres unmarked) [TAN-749A dihydrochloride] came in with a pKa of 8.

With `C/C=C\C=C\C(=O)NC(C)C(O)CC(N)CC(=O)NCCC(=N)N` (centres unmarked) [TAN-749B dihydrochloride], the pKa is 8.05.

The next series concerns Staphylococcus aureus 308A-1. In words: Therapeutic effect on infectious disease in mice (Table G). Format: in vivo. The note with it: 308A1, sc, dihydrochloride, bacteria infected intraperitoneally, subcutaneous administration.
Broadly, the ED50 is the midpoint of the dose-response relation. For `C/C=C/C=C/C(=O)NCC(O)CC(N)CC(=O)NCCC(=N)N` (centres unmarked) [III], the 50% effect level (ED50) was put at a dose of 12.5 mg/kg.

A further series deals with Escherichia coli 0-111. The series is described as above. Format: in vivo. To be noted: Escherichia coli, 0111, sc, dihydrochloride, bacteria infected intraperitoneally, subcutaneous administration.
For `C/C=C/C=C/C(=O)NCC(O)CC(N)CC(=O)NCCC(=N)N` (centres unmarked) [III], it took a dose of 50 mg/kg to reach the 50% effect level (ED50).

Values taken from patent US4906659A, “Antibiotic tan-749, its derivatives, production and use thereof” (Takeda Chemical Industries, Ltd., priority 1985, dated 1990).
